Measured values as given in PubChem BioAssay (NCI).
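Grown in 96-well plates, cells were treated for 48 hours with each compound at five concentrations. Insufficient inhibition: endpoint recorded as highest concentration tested. Abbreviation: GI50, concentration required for 50% inhibition of growth. TGI: concentration producing complete growth inhibition.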

Columns and labels:
Experiment in all cases: NCI-60 cell line screen, 48 h
786-0 renal = system: 786-0 renal
A498 renal = system: A498 renal
ACHN renal = system: ACHN renal
BT-549 breast = system: BT-549 breast
CAKI-1 renal = system: CAKI-1 renal
COLO 205 colon = system: COLO 205 colon
DU-145 prostate = system: DU-145 prostate
HCC-2998 colon = system: HCC-2998 colon
HCT-116 colon = system: HCT-116 colon
HCT-15 colon = system: HCT-15 colon
HL-60(TB) leukemia = system: HL-60(TB) leukemia
HOP-62 NSCLC = system: HOP-62 NSCLC
HOP-92 NSCLC = system: HOP-92 NSCLC
HS 578T breast = system: HS 578T breast
HT29 colon = system: HT29 colon
IGROV1 ovarian = system: IGROV1 ovarian
K-562 leukemia = system: K-562 leukemia
KM12 colon = system: KM12 colon
LOX IMVI melanoma = system: LOX IMVI melanoma
M14 melanoma = system: M14 melanoma
MALME-3M melanoma = system: MALME-3M melanoma
MCF7 breast = system: MCF7 breast
MDA-MB-231 breast = system: MDA-MB-231 breast
MDA-MB-435 = system: MDA-MB-435
MOLT-4 leukemia = system: MOLT-4 leukemia
NCI-H226 lung = system: NCI-H226 lung
NCI-H23 lung = system: NCI-H23 lung

CCN(CC)CCn1c(=N)n(CC(O)c2ccc(Cl)c(Cl)c2)c2ccccc21 (stereo not drawn)
GI50 (786-0 renal): 10.9 µM
TGI (786-0 renal): 23.1 µM
GI50 (A498 renal): 3.07 µM
TGI (A498 renal): 15.6 µM
GI50 (ACHN renal): 11.9 µM
TGI (ACHN renal): 24.4 µM
GI50 (BT-549 breast): 14.5 µM
TGI (BT-549 breast): 28 µM
GI50 (CAKI-1 renal): 11.8 µM
TGI (CAKI-1 renal): 25.1 µM
GI50 (COLO 205 colon): 2.05 µM
TGI (COLO 205 colon): 3.96 µM
GI50 (DU-145 prostate): 13.9 µM
TGI (DU-145 prostate): 26.8 µM
GI50 (HCC-2998 colon): 2.34 µM
TGI (HCC-2998 colon): 5.3 µM
GI50 (HCT-116 colon): 4.47 µM
TGI (HCT-116 colon): 16.4 µM
GI50 (HCT-15 colon): 4.02 µM
TGI (HCT-15 colon): 15.1 µM
GI50 (HL-60(TB) leukemia): 5.12 µM
TGI (HL-60(TB) leukemia): 22.2 µM
GI50 (HOP-62 NSCLC): 11.8 µM
TGI (HOP-62 NSCLC): 24.8 µM
GI50 (HOP-92 NSCLC): 2.73 µM
TGI (HOP-92 NSCLC): 13.1 µM
GI50 (HS 578T breast): 4.25 µM
TGI (HS 578T breast): 21.2 µM
GI50 (HT29 colon): 3.3 µM
TGI (HT29 colon): 12.1 µM
GI50 (IGROV1 ovarian): 5.87 µM
TGI (IGROV1 ovarian): 20.6 µM
GI50 (K-562 leukemia): 2.33 µM
TGI (K-562 leukemia): 6.36 µM
GI50 (KM12 colon): 9.86 µM
TGI (KM12 colon): 22.2 µM
GI50 (LOX IMVI melanoma): 6.14 µM
TGI (LOX IMVI melanoma): 20.3 µM
GI50 (M14 melanoma): 2.07 µM
TGI (M14 melanoma): 3.74 µM
GI50 (MALME-3M melanoma): 2.23 µM
TGI (MALME-3M melanoma): 4.44 µM
GI50 (MCF7 breast): 2.83 µM
TGI (MCF7 breast): 8.56 µM
GI50 (MDA-MB-231 breast): 5.16 µM
TGI (MDA-MB-231 breast): 20.2 µM
GI50 (MDA-MB-435): 1.75 µM
TGI (MDA-MB-435): 3.49 µM
GI50 (MOLT-4 leukemia): 3.1 µM
TGI (MOLT-4 leukemia): 13.1 µM
GI50 (NCI-H226 lung): 17 µM
TGI (NCI-H226 lung): 36.9 µM
GI50 (NCI-H23 lung): 15 µM
